Laboratory results from patent US11066414B2, “Cot modulators and methods of use thereof” (Gilead Sciences, Inc., priority 2015, dated 2021).
Read-outs that look alike come from different tables or passages of the source.

Columns and labels:
TNFα = assay: Cot Monocyte TNFα Cell Based Assay
Human Cot = Human Cot (Homo sapiens (Human), UniProt P41279); assay: High Throughput Cot Biochemical Assay
[1] = Homo sapiens, Monocyte, read-out: EC50 TNF, LPS-stimulated human monocytes, TNFα
[2] = IC50 HTRF, Cot HTRF (TR-FRET) biochemical assay
[3] = read-out: EC50 TNF, LPS-stimulated human monocytes, TNFα
[4] = read-out: IC50 HTRF, Cot HTRF (TR-FRET) biochemical assay
[5] = Homo sapiens, Monocyte, read-out: EC50 TNF, LPS-stimulated human monocytes, TNFα TR-FRET
[6] = IC50 HTRF, Cot HTRF (TR-FRET KinEASE) biochemical assay, 400 μM ATP

Chain of Human Cot (P41279 30-397): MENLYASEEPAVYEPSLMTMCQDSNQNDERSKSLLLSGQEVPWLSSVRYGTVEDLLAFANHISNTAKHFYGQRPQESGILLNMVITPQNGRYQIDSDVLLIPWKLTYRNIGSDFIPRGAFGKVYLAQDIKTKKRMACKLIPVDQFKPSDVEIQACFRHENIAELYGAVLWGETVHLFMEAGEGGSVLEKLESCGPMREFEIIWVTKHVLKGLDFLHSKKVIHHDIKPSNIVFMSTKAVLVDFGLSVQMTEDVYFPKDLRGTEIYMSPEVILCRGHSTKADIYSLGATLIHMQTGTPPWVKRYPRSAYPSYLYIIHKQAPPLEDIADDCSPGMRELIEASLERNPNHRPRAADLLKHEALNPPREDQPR

Row | Compound | EC50 (TNFα; [1]) | IC50 (Human Cot; [2]) | also measured
1 | CC(C)(C)CNc1c(C#N)cnc2c(Cl)cc(N[C@H](c3cn(C4(C5CC5)CC4)nn3)c3cccc4cnccc34)cc12 [Example 682, (S)-6-(((4-(1-(1-bi(cyclopropan)]-1-yl)-1H-1,2,3-triazol-4-yl)(isoquinolin-5-yl)methyl)amino)-8-chloro-4-(neopentylamino)quinoline-3-carbonitrile] |  |  | EC50 (TNFα; [3]): 66 nM; IC50 (Human Cot; [4]): 7 nM
2 | Cc1ncccc1[C@H](Nc1cc(Cl)c2ncc(C#N)c(Nc3cnc(F)c(F)c3)c2c1)c1cn(C2COC2)nn1 [Example 172, (S)-8-chloro-4-((5,6-difluoropyridin-3-yl)amino)-6-(((2-methylpyridin-3-yl)(1-(oxetan-3-yl)-1H-1,2,3-triazol-4-yl)methyl)amino)quinoline-3-carbonitrile] | 832 nM | 10 nM | 
3 | Cn1cnc([C@H](Nc2cc(Cl)c3ncc(C#N)c(Nc4ccc(F)c(Cl)c4)c3c2)c2cn(C3CCN(C(C)(C)C)CC3)nn2)c1 [Example 267, (S)-6-(((1-(1-(tert-butyl)piperidin-4-yl)-1H-1,2,3-triazol-4-yl)(1-methyl-1H-imidazol-4-yl)methyl)amino)-8-chloro-4-((3-chloro-4-fluorophenyl)-amino)quinoline-3-carbonitrile] | 5120 nM | 30 nM | 
4 | CC(C)(C)CNc1c(C#N)cnc2c(Cl)cc(N[C@@H](c3cn(C4CC4)nn3)c3csc4c3CCN(C3COC3)C4)cc12 [Example 81, (R)-8-chloro-6-(((1-cyclopropyl-1H-1,2,3-triazol-4-yl)(6-(oxctan-3-yl)-4,5,6,7-tetrahydrothieno[2,3-c]pyridin-3-yl)methyl)amino)-4-(neopentylamino)-quinoline-3-carbonitrile] |  |  | EC50 (TNFα; [3]): > 1000 nM; IC50 (Human Cot; [4]): 400 nM
5 | N#Cc1cnc2c(Cl)cc(N[C@@H](c3cccnc3)c3c[nH]nn3)cc2c1N[C@H](CCO)c1ccccc1 [Example 179, 8-chloro-4-(((R)-3-hydroxy-1-phenylpropyl)amino)-6-(((S)-pyridin-3-yl(1H-1,2,3-triazol-4-yl)methyl)amino)quinoline-3-carbonitrile] | > 10000 nM | 265 nM | 
6 | Cn1c(=O)ccc2c([C@H](Nc3cc(C#N)c4ncc(C#N)c(NCC(C)(C)C)c4c3)c3cn(C4(C(F)(F)F)CC4)nn3)cccc21 [Example 890, (S)-6-(((1-methyl-2-oxo-1,2-dihydroquinolin-5-yl)(1-(1-(trifluoromethyl)cyclopropyl)-1H-1,2,3-triazol-4-yl)methyl)amino)-4-(neopentylamino)quinoline-3,8-dicarbonitrile] |  |  | EC50 (TNFα; [5]): 68 nM; IC50 (Human Cot; [6]): 6 nM
7 | COc1nccc2c([C@H](Nc3cc(C#N)c4ncc(C#N)c(NCC(C)(C)C)c4c3)c3cn(C4CC4)nn3)cccc12 [Example 808, (S)-6-(((1-cyclopropyl-1H-1,2,3-triazol-4-yl)(1-methoxylsoquinolin-5-yl)methyl)airiino)-4-(neopentylamino)quinoline-3,8-dicarbonitrile] |  |  | EC50 (TNFα; read-out: EC50 TNF, LPS-stimulated human monocytes, TNFα TR-FRET): 29 nM; IC50 (Human Cot; read-out: IC50 HTRF, Cot HTRF (TR-FRET KinEASE) biochemical assay, 400 μM ATP): 3 nM
8 | CC(C)(C)N1CCC(n2cc([C@@H](Nc3cc(Cl)c4ncc(C#N)c(Nc5ccc(F)c(Cl)c5)c4c3)c3csc4ccc(Cl)cc34)nn2)CC1 [Example 349, (S)-6-(((1-(1-(tert-butyl)piperidin-4-yl)-1H-1,2,3-triazol-4-yl)(5-chlorobenzo[b]-thiophen-3-yl)methyl)amino)-8-chloro-4-((3-chloro-4-fluorophenyl)amino)quinoline-3-carbonitrile] | 718 nM | 41 nM | 
9 | Cc1nc(F)ccc1[C@@H](c1cn(C2(C(F)(F)F)CC2)nn1)N(C)c1cc(Cl)c2ncc(C#N)c(NCC(C)(C)C)c2c1 [Example 979, (S)-8-chloro-6-(((6-fluoro-2-methylpyridin-3-yl)(1-(1-(trifluoromethyl)cyclopropyl)-1H-1,2,3-triazol-4-yl)methyl)(methyl)amino)-4-(neopentylamino)quinoline-3-carbonitrile] |  |  | EC50 (TNFα; [5]): 1000 nM; IC50 (Human Cot; [6]): 244 nM

Now from value to compound, other results behind:

Row | EC50 (TNFα; [1]) | IC50 (Human Cot; [2]) | Compound | also measured
10 | 120 nM | 6 nM | CC(C)(C)CNc1c(C#N)cnc2c(Cl)cc(N[C@H](c3cn(C4(C(F)(F)F)CC4)nn3)c3csc4cnccc34)cc12 [Example 741, (S)-8-chloro-4-(neopentylamino)-6-((thieno[2,3-c]pyridin-3-yl(1-(1-(trifluoromethyl)cyclopropyl)-1H-1,2,3-triazol-4-yl)methyl)amino)quinoline-3-carbonitrile] | 
11 | 369 nM | 33 nM | N#Cc1cnc2c(Cl)cc(N[C@H](c3cn(C4COC4)nn3)c3ccc(Cl)nc3Cl)cc2c1Nc1ccc(F)c(Cl)c1 [Example 322, (S)-8-chloro-4-((3-chloro-4-fluorophenyl)amino)-6-(((2,6-dichloro-pyridin-3-yl)(1-(oxetan-3-yl)-1H-1,2,3-triazol-4-yl)methyl)amino)quinoline-3-carbonitrile] | 
12 | 303 nM | 7 nM | CCN1CCC(n2cc([C@@H](Nc3cc(Cl)c4ncc(C#N)c(Nc5ccc(F)c(Cl)c5)c4c3)c3cc(Cl)cs3)nn2)CC1 [Example 381, (R)-8-chloro-4-((3-chloro-4-fluoro-phenyl)amino)-6-(((4-chlorothiophen-2-yl)(1-(1-ethylpiperidin-4-yl)-1H-1,2,3-triazol-4-yl)methyl)amino)-quinoline-3-carbonitrile] | 
13 | 33 nM | 2 nM | N#CCC[C@@H](Nc1c(C#N)cnc2c(Cl)cc(N[C@H](c3cn(C4CC4)nn3)c3cccc4ncsc34)cc12)c1ccccc1 [Example 69, 6-(((S)-benzo[d]thiazol-7-yl(1-cyclopropyl-1H-1,2,3-triazol-4-yl)methyl)amino)-8-chloro-4-(((R)-3-cyano-1-phenylpropyl)amino)quinoline-3-carbonitrile] | 
14 | 165 nM | 5 nM | N#Cc1cnc2c(Cl)cc(N[C@H](c3cn(C4COC4)nn3)c3cccnc3Cl)cc2c1Nc1ccc(F)c(Cl)c1 [Example 319, (S)-8-chloro-4-((3-chloro-4-fluorophenyl)amino)-6-(((2-chloropyridin-3-yl)(1-(oxetan-3-yl)-1H-1,2,3-triazol-4-yl)methyl)amino)-quinoline-3-carbonitrile] | 
15 | 26 nM | 2 nM | Cc1nc(F)ccc1[C@H](Nc1cc(C#N)c2ncc(C#N)c(NCC(C)(C)C)c2c1)c1cn(C2(C(F)F)CC2)nn1 [Example 473, (S)-6-(((1-(1-(difluoromethyl)cyclopropyl)-1H-1,2,3-triazol-4-yl)(6-fluoro-2-methylpyridin-3-yl)methyl)amino)-4-(neopentylamino)quinoline-3,8-dicarbonitrile] | 
16 | 76 nM | 5 nM | CC[C@@H](Nc1c(C#N)cnc2c(C#N)cc(N[C@H](c3cn(C4CC4)nn3)c3cccc4ncsc34)cc12)c1ccccc1 [Example 411, 6-(((S)-benzo[d]thiazol-7-yl(1-cyclopropyl-1H-1,2,3-triazol-4-yl)methyl)amino)-4-(((R)-1-phenylpropyl)amino)quinoline-3,8-dicarbonitrile] | 
17 | 46 nM | 4 nM | CC(C)(CNc1c(C#N)cnc2c(Cl)cc(N[C@H](c3cn(C45CC(C4)C5)nn3)c3cccc4ncccc34)cc12)C(F)(F)F [Example 799, (S)-6-(((1-(bicyclo[1.1.1]pentan-1-yl)-1H-1,2,3-triazol-4-yl)(quinolin-5-yl)methyl)amino)-8-chloro-4-((3,3,3-trifluoro-2,2-dimethylpropyl)amino)quinoline-3-carbonitrile] | 
18 | 52 nM | 5 nM | Cn1nnc2cccc([C@H](Nc3cc(Cl)c4ncc(C#N)c(NCC(C)(C)C)c4c3)c3cn(C4(C(F)(F)F)CC4)nn3)c21 [Example 522, (S)-8-chloro-6-(((1-methyl-1H-benzo[d] [1,2,3]triazol-7-yl)(1-(1-(trifluoromethyl)-cyclopropyl)-1H-1,2,3-triazol-4-yl)methyl)amino)-4-(neopentylamino)-quinoline-3-carbonitrile] | 
19 | 46 nM | 4 nM | CC(C)(C)CNc1c(C#N)cnc2c(C#N)cc(N[C@H](c3cn(C4(C(F)(F)F)CC4)nn3)c3ccc(F)c4ncccc34)cc12 [Example 627, (S)-6-(((8-fluoroquinolin-5-yl)(1-(1-(trifluoro-methyl)cyclopropyl)-1H-1,2,3-triazol-4-yl)methyl)amino)-4-(neopentylamino)quinoline-3,8-dicarbonitrile] | 
20 | 12 nM | 1 nM | Cc1nc(F)ccc1[C@H](Nc1cc(C#N)c2ncc(C#N)c(NCC(C)(C)C)c2c1)c1cn(C2(C3CC3)CC2)nn1 [Example 621, (S)-6-(((1-([1,1′-bi(cyclopropan)]-1-yl)-1H-1,2,3-triazol-4-yl)(6-fluoro-2-methylpyridin-3-yl)methyl)amino)-4-(neopentylamino)quinoline-3,8-dicarbonitrile] | 
21 | 154 nM | 17 nM | CC(C)(C)CNc1c(C#N)cnc2c(Cl)cc(N[C@H](c3cn(C4(C(F)(F)F)CC4)nn3)c3cccc4ncccc34)cc12 [Example 461, (S)-8-chloro-4-(neopentylamino)-6-((quinolin-5-yl(1-(1-(trifluoromethyl)-cyclopropyl)-1H-1,2,3-triazol-4-yl)methyl)amino)quinoline-3-carbonitrile] | 
22 | 33 nM | 3 nM | Cn1ccc2c([C@H](Nc3cc(Cl)c4ncc(C#N)c(NCC(C)(C)C)c4c3)c3cn(C4(C(F)F)CC4)nn3)cccc2c1=O [Example 744, (S)-8-chloro-6-(((1-(1-(difluoromethyl)cyclopropyl)-1H-1,2,3-triazol-4-yl)(2-methyl-1-oxo-1,2-dihydroisoquinolin-5-yl)methyl)amino)-4-(neopentylamino)quinoline-3-carbonitrile] | 
